In US4452817A, “Anaesthetic compositions containing 2,6-diisopropylphenol” (Imperial Chemical Industries PLC, priority 1974, dated 1984):

Columns and labels:
mice [1] = experiment: HD50 (anaesthesia, loss of righting reflex) and LD50 in mice, intravenous; conditions: Mus musculus, read-out: HD50 (dose required to cause anaesthesia, loss of righting reflex for at least 30 seconds, in 5 out of 10 mice)
Description: (§1) Each mouse is various groups of 10 mice is injected intravenously with a 1% sterile solution of 2,6-diisopropylphenol as described in Example 14, the total dose administered being the same within any group but differing between groups.

[2] = as above; conditions: mouse, in vivo; for LD50: mice
Description: as §1

mice [3] = experiment: Mean sleeping time of mice after twice the HD50, intravenous; assay type: in vivo, mouse; conditions: for 2,6-diisopropylphenol 27 mg./kg., standard deviation ±0.59 minutes
Description: Each of 10 mice is injected intravenously with 27 mg./kg. bodyweight (twice the HD50) of 2,6-diisopropylphenol as a 1% sterile solution described in Example 14.

cat [4] = conditions: 10 mg./kg. i.v., topical anaesthetic applied to the larynx
From the text: A cat is anaesthetised exactly as described in Example 17. […] Anaesthesia is thereafter maintained with an inhalation anaesthetic delivered through an Ayre's T-piece circuit.

cat [5] = conditions: 10 mg./kg. i.v. plus four supplementary i.v. injections each of 2.0 mg./kg.
From the text: A cat weighing 2.5 kg. is anaesthetised exactly as described in Example 17.

pigtail monkey = conditions: 2% solution
Description: A 2% sterile solution of 2,6-diisopropylphenol prepared as described in Example 14 is administered intravenously to a pigtail monkey weighing 6.8 kg. at a rate of 0.05 mg. of phenol/kg. bodyweight/second until a dose of 34 mg. (5 mg./kg. bodyweight) of the phenol has been injected.

[6] = system: mice, rats, rabbits, cats, rhesus or pigtail monkeys, pigs, sheep, horses, or cattle; experiment: Intravenous anaesthesia in various animal species; assay type: in vivo
Description: Anaesthesia is produced in less than 1 minute and lasts, depending upon the species and the dose, from 3 to 25 minutes. […] The compound may also be administered intramuscularly.

cat [7] = conditions: 5 cats, 2% solution
cat [8] = experiment: Intramuscular anaesthesia in a cat (Example 20); assay type: in vivo; conditions: 35 mg./kg. intramuscularly
Description: Righting reflexes are lost after 15 minutes, after a further 25 minutes anaesthesia has deepened sufficiently to allow intubation to be carried out. Muscle tone returns after a further 60 minutes and thereafter recovery is uneventful.

[9] = LD50 (dose required to kill 5 out of 10 mice), intravenous, 2,6-diisopropylphenol as 1% sterile solution of Example 14
[10] = intravenous, single dose of between 2.5 and 10 mg. per kg. bodyweight

CCCC(C)C1(CC)C(=O)NC(=S)NC1=O (centres unmarked) [thiopentone sodium, reference compound]
ED50 (mice [1]): 23.5 mg/kg | selectivity ratio [2]: 4.26 | LD50 [2, 9]: 100 mg/kg | Mean sleeping time after twice the HD50 (mice [3]): 5.97 ± 1.63 min

CC(C)c1cccc(C(C)C)c1O [2,6-diisopropylphenol]
Depth of anaesthesia (cat [4]): sufficient depth to allow intubation of the trachea | Quality of recovery after the operation (cat [5]): rapid | Time after completion of the operation until cat is able to stand (cat [5]): 35 min | Maintenance of anaesthesia during 45 minute laparotomy (cat [5]; 2% solution): anaesthesia is maintained during that time | Induction of anaesthesia (pigtail monkey; 5 mg./kg. i.v. at 0.05 mg./kg./second): smooth and rapid | Duration of anaesthesia (pigtail monkey; 5 mg./kg. i.v.): approximately 6 minutes | Muscle relaxation (pigtail monkey; 5 mg./kg. i.v.): muscle relaxation is produced | Quality of recovery (pigtail monkey; 5 mg./kg. i.v.): rapid | Spinal reflexes (pigtail monkey; 5 mg./kg. i.v.): spinal reflexes are depressed | Time after induction at which recovery is almost complete (pigtail monkey; 5 mg./kg. i.v.): 16 min | Quality of recovery ([6]; all animals, intravenous, 2.5 to 10 mg. per kg.): normal and rapid | Adverse side-effects ([6]; at anaesthetic doses): no adverse side-effects are noted | Quality of anaesthesia produced [6, 10]: smooth and rapid anaesthesia | Time in which anaesthesia is produced [6, 10]: less than 1 minute | Induction of anaesthesia (cat [7]; 10 mg./kg. i.v. at 0.05 mg./kg./second): rapid and free from excitment | Muscle relaxation (cat [7]; 10 mg./kg. i.v.): muscle relaxation is produced | Quality of further recovery (cat [7]; 10 mg./kg. i.v.): smooth and rapid | Spinal reflexes (cat [7]; 10 mg./kg. i.v.): spinal reflexes are depressed | Time to return of response to painful stimulation (cat [7]; 10 mg./kg. i.v.): approximately 10 minutes | Mean time from induction to reappearance of righting reflexes (cat [7]; 10 mg./kg. i.v., standard deviation ±7.35 minutes): 34 min | Mean time after induction until cat is able to stand again (cat [7]; 10 mg./kg. i.v., ±10.29 minutes): 42.6 min | Further time (after intubation depth) until muscle tone returns (cat [8]; 2% solution): 60 min | Further time after loss of righting reflexes until anaesthesia is deep enough for intubation (cat [8]; 2% solution): 25 min | Quality of recovery (cat [8]; 2% solution): uneventful | Time to loss of righting reflexes (cat [8]; 2% solution): 15 min | Pain or lesion at the site of injection (cat [8]; during the subsequent 7 days): No pain or lesion at the site of injection is observed | ED50 (mice [1]): 13.5 mg/kg | selectivity ratio [2]: 4.14 | LD50 [2, 9]: 56 mg/kg | LD50 ([2]; LD50 dose in mice (general description)): 65 mg/kg | Mean sleeping time after twice the HD50 (mice [3]): 4.29 min
